Test results taken from patent publication US9957263B2, “Bromodomain inhibitors” (AbbVie Inc., priority 2013, dated 2018).

Tests used:
BRD4 (BDI_K57-E168) = BRD4 (BDI_K57-E168) (Homo sapiens (Human), UniProt O60885); test: TR-FRET bromodomain binding assay, BRD4 first bromodomain; settings: His-tagged BD1, Alexa647-labeled probe 100 nM
How it was run: (§1)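 Read-out: TR-FRET ratio after 1 h at room temperature, normalized to controls and fitted for IC50, then converted to Ki. Reaction held 8 nM His-tagged domain, 1 nM Eu-anti-His antibody, Alexa647 probe (BDI 100 nM; BDII 30 nM) and test compound in 2% DMSO.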

BRD4 (BDII_E352-M457) = BRD4 (BDII_E352-M457) (Homo sapiens (Human), UniProt O60885); test: TR-FRET bromodomain binding assay, BRD4 second bromodomain; settings: His-tagged BD2, Alexa647-labeled probe 30 nM
How it was run: as §1

SMILES | Ki (BRD4 (BDI_K57-E168)) [nM] | Ki (BRD4 (BDII_E352-M457)) [nM]
CCS(=O)(=O)c1ccc(Oc2c(C)cccc2Cl)c(-c2cn(C)c(=O)c3[nH]c(C(=O)NCC(=O)NC)cc23)c1 [Example 124, 4-[2-(2-chloro-6-methylphenoxy)-5-(ethylsulfonyl)phenyl]-6-methyl-N-[2-(methylamino)-2-oxoethyl]-7-oxo-6,7-dihydro-1H-pyrrolo[2,3-c]pyridine-2-carboxamide] | 88.3 | 10.1
Cn1cc(-c2cc(S(C)(=O)=O)ccc2Oc2cccc(C(=O)NC3CC3)c2)c2cc[nH]c2c1=O [Example 21, N-cyclopropyl-3-[2-(6-methyl-7-oxo-6,7-dihydro-1H-pyrrolo[2,3-c]pyridin-4-yl)-4-(methylsulfonyl)phenoxy]benzamide] | 33 | 10
CC(=O)Nc1ccc(CN[C@H]2CC[C@H](Nc3ccc(S(C)(=O)=O)cc3-c3cn(C)c(=O)c4[nH]ccc34)CC2)cc1 [Example 108, N-(4-{[(trans-4-{[2-(6-methyl-7-oxo-6,7-dihydro-1H-pyrrolo[2,3-c]pyridin-4-yl)-4-(methylsulfonyl)phenyl]amino}cyclohexyl)amino]methyl}phenyl)acetamide] | 3.4 | 5.6
Cc1ccc(CNc2cccc(Oc3ccc(S(C)(=O)=O)cc3-c3cn(C)c(=O)c4[nH]ccc34)c2)c(C)c1 [Example 70, 4-[2-{3-[(2,4-dimethylbenzyl)amino]phenoxy}-5-(methylsulfonyl)phenyl]-6-methyl-1,6-dihydro-7H-pyrrolo[2,3-c]pyridin-7-one] | 16 | 6.5
CCNC(=O)c1cc2c(-c3cc(S(=O)(=O)CC)ccc3Oc3c(C)cccc3CCc3ccccc3)cn(C)c(=O)c2[nH]1 [Example 148, N-ethyl-4-{5-(ethylsulfonyl)-2-[2-methyl-6-(2-phenylethyl)phenoxy]phenyl}-6-methyl-7-oxo-6,7-dihydro-1H-pyrrolo[2,3-c]pyridine-2-carboxamide] | 5720 | 7.02
CCNC(=O)c1cc2c(-c3cc(S(=O)(=O)CC)ccc3Oc3c(C)cccc3NCC3CC3)cn(C)c(=O)c2[nH]1 [Example 119, 4-[2-{2-[(cyclopropylmethyl)amino]-6-methylphenoxy}-5-(ethylsulfonyl)phenyl]-N-ethyl-6-methyl-7-oxo-6,7-dihydro-1H-pyrrolo[2,3-c]pyridine-2-carboxamide] | 1510 | 6.69
Cn1cc(-c2cc(S(C)(=O)=O)ccc2Oc2cccc(NCc3ccc(F)cc3)c2)c2cc[nH]c2c1=O [Example 62, 4-[2-{3-[(4-fluorobenzyl)amino]phenoxy}-5-(methylsulfonyl)phenyl]-6-methyl-1,6-dihydro-7H-pyrrolo[2,3-c]pyridin-7-one] | 3.1 | 1.4
CCS(=O)(=O)Nc1cc(-c2cn(C)c(=O)c3[nH]ccc23)c(Oc2ccc(F)cc2F)cc1CNCCO [Example 13, N-[4-(2,4-difluorophenoxy)-2-{[(2-hydroxyethyl)amino]methyl}-5-(6-methyl-7-oxo-6,7-dihydro-1H-pyrrolo[2,3-c]pyridin-4-yl)phenyl]ethanesulfonamide] | 42 | 7.4
Cn1cc(-c2cc(S(C)(=O)=O)ccc2N[C@H]2CC[C@H](NCc3ccc(F)cc3F)CC2)c2cc[nH]c2c1=O [Example 109, 4-[2-({trans-4-[(2,4-difluorobenzyl)amino]cyclohexyl}amino)-5-(methylsulfonyl)phenyl]-6-methyl-1,6-dihydro-7H-pyrrolo[2,3-c]pyridin-7-one] | 1.6 | 8.3
COc1ccc(S(=O)(=O)N2CCC(Nc3ccc(S(C)(=O)=O)cc3-c3cn(C)c(=O)c4[nH]ccc34)CC2)cc1 [Example 104, 4-[2-({1-[(4-methoxyphenyl)sulfonyl]piperidin-4-yl}amino)-5-(methylsulfonyl)phenyl]-6-methyl-1,6-dihydro-7H-pyrrolo[2,3-c]pyridin-7-one] | 4.6 | 4
CCS(=O)(=O)c1ccc(OCC2CC2(F)F)c(-c2cn(C)c(=O)c3[nH]c(CN4CCN(c5cccnc5)CC4)cc23)c1 (centres unmarked) [Example 20, 4-{2-[(2,2-difluorocyclopropyl)methoxy]-5-(ethylsulfonyl)phenyl}-6-methyl-2-{[4-(pyridin-3-yl)piperazin-1-yl]methyl}-1,6-dihydro-7H-pyrrolo[2,3-c]pyridin-7-one] | 4.9 | 48
Cn1cc(-c2cc(S(C)(=O)=O)ccc2NC2CCN(C(=O)C3(C(N)=O)CC3)CC2)c2cc[nH]c2c1=O [Example 93, 1-[(4-{[2-(6-methyl-7-oxo-6,7-dihydro-1H-pyrrolo[2,3-c]pyridin-4-yl)-4-(methylsulfonyl)phenyl]amino}piperidin-1-yl)carbonyl]cyclopropanecarboxamide] | 19 | 24
Cn1cc(-c2cc(S(C)(=O)=O)ccc2Oc2cccc(NS(=O)(=O)c3ccc(S(C)(=O)=O)cc3)c2)c2cc[nH]c2c1=O [Example 54, N-{3-[2-(6-methyl-7-oxo-6,7-dihydro-1H-pyrrolo[2,3-c]pyridin-4-yl)-4-(methylsulfonyl)phenoxy]phenyl}-4-(methylsulfonyl)benzenesulfonamide] | 3.2 | 1.1
COCCN[C@H]1CC[C@H](Nc2ccc(S(C)(=O)=O)cc2-c2cn(C)c(=O)c3[nH]ccc23)CC1 [Example 111, 4-[2-({trans-4-[(2-methoxyethyl)amino]cyclohexyl}amino)-5-(methylsulfonyl)phenyl]-6-methyl-1,6-dihydro-7H-pyrrolo[2,3-c]pyridin-7-one] | 4.6 | 12
CCS(=O)(=O)Nc1cc(-c2cn(C)c(=O)c3[nH]ccc23)c(Oc2ccc(F)cc2F)cc1CN1CCOCC1 [Example 4, N-[4-(2,4-difluorophenoxy)-5-(6-methyl-7-oxo-6,7-dihydro-1H-pyrrolo[2,3-c]pyridin-4-yl)-2-(morpholin-4-ylmethyl)phenyl]ethanesulfonamide] | 11 | 1.7
Cn1cc(-c2cc(S(C)(=O)=O)ccc2Oc2ccc(F)cc2F)c2cc(CN3CCN(C4CC4)CC3)[nH]c2c1=O [Example 115, 2-[(4-cyclopropylpiperazin-1-yl)methyl]-4-[2-(2,4-difluorophenoxy)-5-(methylsulfonyl)phenyl]-6-methyl-1,6-dihydro-7H-pyrrolo[2,3-c]pyridin-7-one] | 5.22 | 120
CCS(=O)(=O)c1ccc(Oc2ccc(F)cc2F)c(-c2cn(C)c(=O)c3[nH]c(-c4cccnc4N4CCOCC4)cc23)c1 [Example 118, 4-[2-(2,4-difluorophenoxy)-5-(ethylsulfonyl)phenyl]-6-methyl-2-[2-(morpholin-4-yl)pyridin-3-yl]-1,6-dihydro-7H-pyrrolo[2,3-c]pyridin-7-one] | 99.2 | 367
Cn1cc(-c2cc(S(C)(=O)=O)ccc2Oc2ccc(F)cc2F)c2cc(CN3CC(n4cncn4)C3)[nH]c2c1=O [Example 156, 4-[2-(2,4-difluorophenoxy)-5-(methylsulfonyl)phenyl]-6-methyl-2-{[3-(1H-1,2,4-triazol-1-yl)azetidin-1-yl]methyl}-1,6-dihydro-7H-pyrrolo[2,3-c]pyridin-7-one] | 26.8 | 42.3
Cn1cc(-c2cc(S(C)(=O)=O)ccc2Oc2cccc(NS(=O)(=O)c3ccc(C#N)cc3)c2)c2cc[nH]c2c1=O [Example 56, 4-cyano-N-{3-[2-(6-methyl-7-oxo-6,7-dihydro-1H-pyrrolo[2,3-c]pyridin-4-yl)-4-(methylsulfonyl)phenoxy]phenyl}benzenesulfonamide] | 8.8 | 3.4
